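Method: 48-hour compound exposure of cells in 96-well plates, five concentrations, linear interpolation of endpoints. GI50 is the concentration that inhibits growth by half.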 Activity calls are given as the source filed them. No stated cut-off is given here; in the data, active = GI50 up to about 1.1 µM and inactive = higher.
Assays:
Test in all cases: DTP human tumour cell line panel, 48 h
DMS-273 = tested on: DMS-273
DLD-1 = tested on: DLD-1
M19-MEL = tested on: M19-MEL
HOP-18 = tested on: HOP-18
KM-20L2 = tested on: KM-20L2
DMS-114 = tested on: DMS-114
MDA-N = tested on: MDA-N
XF498 = tested on: XF498
RXF 631 = tested on: RXF 631

SMILES | GI50 (DMS-273) | GI50 (DLD-1) | GI50 (M19-MEL) | GI50 (HOP-18) | GI50 (KM-20L2) | GI50 (DMS-114) | GI50 (MDA-N) | also measured
CCc1cc(C)cc2[n+]1CC=C2C.[O-][Cl+3]([O-])([O-])[O-] | 92 µM (inactive) | > 100 µM (inactive) | > 100 µM (inactive) | 1.72 µM (inactive) | > 100 µM (inactive) |  |  | 
O=C1CC(c2ccccc2)NCN1 (centres undefined) | > 100 µM (inactive) | > 100 µM (inactive) | > 100 µM (inactive) | > 100 µM (inactive) | > 100 µM (inactive) | > 100 µM (inactive) |  | 
CCOC(=O)/C=C1\c2ccccc2C(=O)N1CC(=O)OCC |  |  |  |  |  |  | > 100 µM (inactive) | 
N=C(c1ccc(-c2cn3cc(C(=N)N4CCCC4)ccc3n2)cc1)N1CCCC1 |  |  |  |  |  |  | > 100 µM (inactive) | 
Cc1n[nH]c(=S)n1/N=C/c1ccc(-c2ccc(Cl)cc2)o1 |  |  |  |  |  |  | > 100 µM (inactive) | 
O=C1Nc2ccc(S(=O)(=O)NCCO)cc2/C1=C1/Nc2ccccc2C1=O |  |  |  |  |  |  | > 100 µM (inactive) | 
CC(ON(C(c1ccccc1)C(C)C)C(C)(C)C)c1ccccc1 (centres undefined) |  |  |  |  |  |  | 25.8 µM (inactive) | 
CC(=O)OCc1cc2c(s1)C(=O)c1sccc1C2=O | 0.155 µM (active) | 0.187 µM (active) | < 0.01 µM (active) | 0.145 µM (active) | 2.24 µM (inactive) | 0.149 µM (active) |  | 
Cc1c(C(=O)/C=C/c2ccccc2O)c(=O)n(-c2ccccc2)n1C | 22.2 µM (inactive) | 14.3 µM (inactive) | 23.9 µM (inactive) |  | 31.6 µM (inactive) | 24.6 µM (inactive) |  | GI50 (XF498): 19.1 µM (inactive)
CCOC(=O)c1cc(C2CCN(Cc3ccccc3)C2=O)c(C(=O)/C=C(/C)N)[nH]1 (centres undefined) |  |  |  |  |  |  | > 100 µM (inactive) | 
COc1cc2c(c(OC)c1OC)-c1ccc(SC)c(=O)cc1C(CC(=O)Oc1ccc(F)cc1)C2 (centres undefined) | 0.193 µM (active) | 0.288 µM (active) | 0.236 µM (active) | 0.53 µM (active) | 0.124 µM (active) | 0.26 µM (active) |  | GI50 (XF498): 0.318 µM (active)
COC(=O)/C=C(\C(=O)OC)C1C(=O)Oc2c(C)c(=O)c3ccccc3n21 (centres undefined) |  |  |  |  |  |  | > 100 µM (inactive) | 
C/C(=N\Nc1nc2cc(C(F)(F)F)ccc2s1)c1ccccn1 |  |  |  |  |  |  | 1.06 µM (active) | 
O=C(O)c1c(-c2cccc3ccccc23)sc(-c2cccc3ccccc23)c1C(=O)O | > 100 µM (inactive) | > 100 µM (inactive) | > 100 µM (inactive) | 96.2 µM (inactive) | 50 µM (inactive) | > 100 µM (inactive) |  | GI50 (XF498): 18.2 µM (inactive)
CCOC1=C2C(=O)OC(=O)C2C2CCCCC2=C1 (centres undefined) | > 100 µM (inactive) | > 100 µM (inactive) | > 100 µM (inactive) |  |  | > 100 µM (inactive) |  | GI50 (XF498): > 100 µM (inactive)
O=C1OC(c2ccccc2)=NC1c1ccccc1 (centres undefined) |  |  |  |  |  |  | > 100 µM (inactive) | 
Cc1ccc(-c2nc3c(C(=O)NCCN(C)C)cccc3[nH]2)cc1 | 9.06 µM (inactive) | 13.5 µM (inactive) | 16.2 µM (inactive) | 15.3 µM (inactive) |  | 13.3 µM (inactive) |  | GI50 (RXF 631): 4.89 µM (inactive)
O=C(N/C(=C\c1ccc(/C=C(\NC(=O)c2ccccc2)c2nc3cc(Cl)ccc3[nH]2)cc1)c1nc2cc(Cl)ccc2[nH]1)c1ccccc1 | 13.8 µM (inactive) | 27.7 µM (inactive) | 32.2 µM (inactive) | 8.91 µM (inactive) | 18 µM (inactive) | 22.9 µM (inactive) |  | GI50 (XF498): 35.1 µM (inactive)
COc1cc2c(cc1OC)[Se]c1cc(OC)c(OC)cc1[Se]2 | 38.1 µM (inactive) | > 10 µM (inactive) | > 10 µM (inactive) | 16.6 µM (inactive) | > 10 µM (inactive) | 5.61 µM (inactive) |  | GI50 (XF498): > 10 µM (inactive)
COc1c(O)c2c3c(cc(C)cc3c1C(C)C)OC2 | > 100 µM (inactive) | > 100 µM (inactive) | > 100 µM (inactive) | > 100 µM (inactive) | > 100 µM (inactive) |  |  | GI50 (XF498): > 100 µM (inactive)
COc1ccc2c(c1)[nH]c1c(/C=C/c3ccccc3)nccc12 |  |  |  |  |  |  | 16.2 µM (inactive) | 
Cc1c(-c2ccccc2)[nH]c2ccc(Cl)cc2c1=O |  |  |  |  |  |  | 17.4 µM (inactive) | 
COC(=O)[C@@]12C(=O)C=CC(=O)C1C1C(=CC2C)OC2OC3(CCCCC3)OC21 (some centres undefined) | 19 µM (inactive) | 18.5 µM (inactive) | 19.2 µM (inactive) | 20.2 µM (inactive) | 20.5 µM (inactive) | 15.7 µM (inactive) |  | 
COc1ccc2c(CC(=O)O)cc(=O)oc2c1 |  |  |  |  |  |  | > 100 µM (inactive) | 
O=C(CCc1cc(O)cc(O)c1)NCCc1cc(O)cc(O)c1 |  |  |  |  |  |  | > 100 µM (inactive) | 
C/C(=N\NC(=O)c1ccccc1O)c1cccc(/C(C)=N/NC(=O)c2ccccc2O)n1 |  |  |  |  |  | 2.66 µM (inactive) | > 57 µM (inactive) | GI50 (XF498): 18.6 µM (inactive)
O=C1Nc2ccc([N+](=O)[O-])cc2/C1=N/NC(=S)Nc1ccc([N+](=O)[O-])cc1 |  |  |  |  |  |  | 17.9 µM (inactive) | 
Cc1cc(S(=O)(=O)Nc2nc3ccsc3c(=O)n2N)c(S)cc1Cl |  |  |  |  |  |  | > 100 µM (inactive) | 
CCOC(=O)Nc1cc2c(c(N)n1)N=C(c1ccc(Cl)cc1Cl)CN2 |  |  |  |  |  |  | < 0.01 µM (active) | 
CC1(C)CCC(C)(C)c2cc(NC(=O)c3ccc(C(=O)O)cc3)ccc21 [TAMIBAROTENE] |  |  |  |  |  |  | 25.6 µM (inactive) | 

From ChEMBL document CHEMBL1201862, “PubChem BioAssay data set” (2004)
